{"source": "the supplement of paper PMC10307832", "assay_in_all_cases": "relative viability (nuclei count vs DMSO), 5 days (fraction); higher = more cells survive", "key": {"[1]": {"compound": "Nc1nc(Nc2ccc3c(c2)CC[C@@H](N2CCCC2)CC3)nn1-c1cc2c(nn1)-c1ccccc1CCC2 [Bemcentinib] + CC(=O)Nc1cccc(-n2c(=O)n(C3CC3)c(=O)c3c(Nc4ccc(I)cc4F)n(C)c(=O)c(C)c32)c1 [Trametinib] (partner 0.02 µM)", "summary_of_the_method": "(§1)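 The day after seeding in 1536-well plates, lung cancer cell lines were treated by pin tool with a single drug, or with a fixed anchor-drug dose together with five library-drug doses (not always all listed) in √10 steps. After 5 days, a combined fix-and-stain solution (final 0.05% Triton X-100, 1% formaldehyde, 1 ug/ml Hoechst) was added. Nuclei counted on 4× images gave relative viability as treated counts over vehicle counts, reported as the median of duplicate plates.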"}, "[2]": {"compound": "CNC(=O)c1ccccc1Sc1ccc2c(/C=C/c3ccccn3)n[nH]c2c1 [Axitinib] + NC(=O)Nc1cc(-c2cccc(F)c2)sc1C(=O)N[C@H]1CCCNC1 [AZD7762] (partner 0.2 µM)", "summary_of_the_method": "as §1"}, "[3]": {"compound": "CNC(=O)c1ccccc1Sc1ccc2c(/C=C/c3ccccn3)n[nH]c2c1 [Axitinib] + Nc1ncn([C@H]2C[C@H](O)[C@@H](CO)O2)c(=O)n1 [Decitabine] (partner 2 µM)", "summary_of_the_method": "as §1"}, "[4]": {"compound": "CC1=CC=C(C=C1)C(=O)CN2C3=C(CCCC3)SC2=N [Pifithrin_alpha] + COc1cc2c(Oc3ccc(NC(=O)C4(C(=O)Nc5ccc(F)cc5)CC4)cc3F)ccnc2cc1OCCCN1CCOCC1 [Foretinib] (partner 0.25 µM)", "summary_of_the_method": "as §1"}}, "data": [{"cell line": "NCI-H650", "values": [{"measurement": "relative viability", "setting": "[1]; first compound 0.04 µM", "result": 1.08}, {"measurement": "relative viability", "setting": "[1]; first compound 0.1265 µM", "result": 0.993}, {"measurement": "relative viability", "setting": "[1]; first compound 0.4 µM", "result": 0.963}, {"measurement": "relative viability", "setting": "[1]; first compound 1.265 µM", "result": 0.947}, {"measurement": "relative viability", "setting": "[1]; first compound 4 µM", "result": 0.966}, {"measurement": "relative viability", "setting": "[2]; first compound 0.005 µM", "result": 1.08}, {"measurement": "relative viability", "setting": "[2]; first compound 0.01581 µM", "result": 0.978}, {"measurement": "relative viability", "setting": "[2]; first compound 0.05 µM", "result": 1.08}, {"measurement": "relative viability", "setting": "[2]; first compound 0.1581 µM", "result": 1.11}, {"measurement": "relative viability", "setting": "[2]; first compound 0.5 µM", "result": 0.862}, {"measurement": "relative viability", "setting": "[3]; first compound 0.005 µM", "result": 0.287}, {"measurement": "relative viability", "setting": "[3]; first compound 0.01581 µM", "result": 0.335}, {"measurement": "relative viability", "setting": "[3]; first compound 0.05 µM", "result": 0.289}, {"measurement": "relative viability", "setting": "[3]; first compound 0.1581 µM", "result": 0.31}, {"measurement": "relative viability", "setting": "[3]; first compound 0.5 µM", "result": 0.306}, {"measurement": "relative viability", "setting": "[4]; first compound 3.162 µM", "result": 0.996}, {"measurement": "relative viability", "setting": "[4]; first compound 10 µM", "result": 1.05}, {"measurement": "relative viability", "setting": "[4]; first compound 31.62 µM", "result": 0.793}, {"measurement": "relative viability", "setting": "[4]; first compound 100 µM", "result": 0.902}]}]}
